For 33 compounds, IC50 results are on record in patent publication US9855268B2, “Triazolo[4,5-d]pyrimidine derivatives” (Merck Patent GmbH, priority 2013, dated 2018).

The assay concerns the target GCN2 (Homo sapiens, UniProt Q9P2K8). The assay is described as follows: GCN2 enzyme assay (TR-FRET Lanthascreen, GFP-eIF2alpha phosphorylation). The assay is classed as biochemical. The conditions noted are these: 10 μM ATP, 80 nM GFP-eIF2a, 30 nM GCN2. The source says:
GCN2: Assay Principle & Conditions
This assay can quantificate the activity of the serin kinase GCN2 (general control non-derepressible-2).
This kinase is involved in the stress metabolism of cells. It is activated upon starvation (amino acid depletion). Its natural substrate is eIF2a (eukaryotic initiation factor 2 alpha subunit), a translation factor, which gets activated (phosphorylated) by GCN2 in case of an amino acid bottleneck in the cells. This in turn leads to a halt of the protein synthesis. Inhibition of GCN2 results in stopping this mechanism: The cell can not stop protein production upon “starvation” stress.
The assay is run in two steps: the enzymatic reaction and the detection step. In the first step GCN2 is incubated with 10 μM ATP and 80 nM of the GFP-labelled substrate eIF2alpha at room temperature.
The enzymatic reaction is stopped by addition of EDTA. The amount of phosphorylated eIF2alpha is determined by TR-FRET (Lanthascreen): A complex is formed consisting of antibody and GFP labelled phospho-eIF2a, which allows a FRET upon exitation at 340 nm.
Final Concentrations in the Enzymatic Reaction
(In TR-FRET formats the signal depends on donor and acceptor labels being close together.)

GCN2, sequence (Q9P2K8 whole entry, species assumed): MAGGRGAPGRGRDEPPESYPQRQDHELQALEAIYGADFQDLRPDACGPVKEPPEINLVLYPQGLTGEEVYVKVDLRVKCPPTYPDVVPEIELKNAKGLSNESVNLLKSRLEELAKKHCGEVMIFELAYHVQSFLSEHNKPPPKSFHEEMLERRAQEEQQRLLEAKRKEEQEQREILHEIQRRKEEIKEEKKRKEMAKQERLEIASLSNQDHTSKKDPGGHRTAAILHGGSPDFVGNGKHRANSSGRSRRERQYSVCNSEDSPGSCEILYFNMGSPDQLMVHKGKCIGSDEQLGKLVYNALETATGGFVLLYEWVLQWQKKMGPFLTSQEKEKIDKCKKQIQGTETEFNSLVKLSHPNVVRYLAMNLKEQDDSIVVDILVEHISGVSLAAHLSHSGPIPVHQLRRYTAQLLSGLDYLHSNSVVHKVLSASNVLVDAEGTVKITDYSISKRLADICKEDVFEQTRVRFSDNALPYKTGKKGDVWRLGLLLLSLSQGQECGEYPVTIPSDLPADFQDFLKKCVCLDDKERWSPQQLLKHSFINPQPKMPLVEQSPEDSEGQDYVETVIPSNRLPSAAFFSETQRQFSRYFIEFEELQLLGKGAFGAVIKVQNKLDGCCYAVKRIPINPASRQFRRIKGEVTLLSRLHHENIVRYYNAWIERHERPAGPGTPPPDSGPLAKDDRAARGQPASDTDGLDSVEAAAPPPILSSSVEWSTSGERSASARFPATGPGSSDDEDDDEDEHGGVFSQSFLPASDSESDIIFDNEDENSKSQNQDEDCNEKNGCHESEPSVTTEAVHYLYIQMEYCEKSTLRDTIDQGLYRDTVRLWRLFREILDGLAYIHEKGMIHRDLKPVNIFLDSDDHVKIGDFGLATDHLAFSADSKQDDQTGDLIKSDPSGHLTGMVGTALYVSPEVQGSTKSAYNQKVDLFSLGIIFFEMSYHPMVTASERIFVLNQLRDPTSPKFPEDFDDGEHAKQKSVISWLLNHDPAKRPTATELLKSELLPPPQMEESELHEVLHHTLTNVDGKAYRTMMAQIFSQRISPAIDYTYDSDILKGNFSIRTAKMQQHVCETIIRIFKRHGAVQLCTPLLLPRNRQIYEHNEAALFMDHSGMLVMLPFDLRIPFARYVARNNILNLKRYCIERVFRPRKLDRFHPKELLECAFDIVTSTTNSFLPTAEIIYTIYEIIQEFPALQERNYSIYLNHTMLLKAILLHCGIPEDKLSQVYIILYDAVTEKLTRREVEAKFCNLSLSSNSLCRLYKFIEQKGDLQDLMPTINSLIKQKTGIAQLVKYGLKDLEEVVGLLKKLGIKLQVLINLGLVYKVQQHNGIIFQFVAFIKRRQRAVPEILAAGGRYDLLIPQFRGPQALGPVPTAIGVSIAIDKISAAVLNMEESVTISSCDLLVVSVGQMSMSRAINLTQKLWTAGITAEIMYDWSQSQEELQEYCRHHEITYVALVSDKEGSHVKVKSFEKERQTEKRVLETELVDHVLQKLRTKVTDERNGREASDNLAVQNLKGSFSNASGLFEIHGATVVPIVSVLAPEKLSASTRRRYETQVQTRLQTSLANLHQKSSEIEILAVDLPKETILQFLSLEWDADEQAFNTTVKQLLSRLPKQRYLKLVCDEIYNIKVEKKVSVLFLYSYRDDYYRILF

Broadly, the IC50 is the concentration needed to halve the response being measured. Compound `COc1ccc(-n2nnc3cnc(N[C@@H]4CC[C@@H](O)C4)nc32)cc1` (racemic) [A10, trans-3-[3-(4-methoxy-phenyl)-3H-[1,2,3]triazolo[4,5-d]pyrimidin-5-ylamino]-cyclopentanol] yielded an IC50 of less than 1000 nM. `COc1ccc(-n2nnc3cnc(N[C@H]4CC[C@H](NC(=O)OC(C)(C)C)C4)nc32)cc1` (racemic) [A35, {trans-3-[3-(4-methoxy-phenyl)-3H-[1,2,3]triazolo[4,5-d]pyrimidin-5-ylamino]-cyclopentyl}-carbamic acid tert-butyl ester] returned an IC50 of 5000 to 10000 nM. The value for `COc1ccc(-n2nnc3cnc(N[C@H]4CC[C@@H](O)C4)nc32)cc1` (relative stereo) [A27, cis-3-[3-(4-methoxy-phenyl)-3H-[1,2,3]triazolo[4,5-d]pyrimidin-5-ylamino]-cyclopentanol] was 1000 to 5000 nM; that for `O[C@@H]1CC[C@@H](Nc2ncc3nnn(-c4ccc(Br)cc4)c3n2)C1` (relative stereo) [A29, trans-3-[3-(4-bromo-phenyl)-3H-[1,2,3]triazolo[4,5-d]pyrimidin-5-ylamino]cyclopentanol] was less than 1000 nM; that for `COc1ccc(-n2nnc3cnc(N[C@@H]4CC[C@](O)(C(F)(F)F)C4)nc32)cc1` (relative stereo) [A67, trans-3-[3-(4-methoxy-phenyl)-3H-[1,2,3]triazolo[4,5-d]pyrimidin-5-ylamino]-1-trifluoromethyl-cyclopentanol] was 1000 to 5000 nM. Then `Cn1cc(-c2ccc(-n3nnc4cnc(N[C@H]5CC[C@H](O)C5)nc43)nc2)cn1` (relative stereo) [A94, trans-3-{3-[5-(1-methyl-1H-pyrazol-4-yl)-pyridin-2-yl]-3H-[1,2,3]triazolo[4,5-d]pyrimidin-5-ylamino}-cyclopentanol], with less than 1000 nM; and `COc1ccc(-n2nnc3cnc(N[C@H]4CC[C@@H](N(C)C)C4)nc32)cc1` (relative stereo) [A108, (cis)-N-[3-(4-methoxy-phenyl)-3H-[1,2,3]triazolo[4,5-d]pyrimidin-5-yl]-N′,N′-dimethyl-cyclopentane-1,3-diamine], with less than 1000 nM.

For `COc1ccc(-n2nnc3cnc(N[C@@H]4CC[C@H](CNC(=O)OC(C)(C)C)C4)nc32)cc1` (relative stereo) [A117, {(cis)-3-[3-(4-methoxy-phenyl)-3H-[1,2,3]triazolo[4,5-d]pyrimidin-5-ylamino]-cyclopentylmethyl}-carbamic acid tert-butyl ester], the IC50 is less than 1000 nM. Compound `COCCn1cc(-n2nnc3cnc(N[C@@H]4CCC[C@@H](C(N)=O)C4)nc32)cn1` (relative stereo) [A165, (trans)-3-{3-[1-(2-methoxy-ethyl)-1H-pyrazol-4-yl]-3H-[1,2,3]triazolo[4,5-d]pyrimidin-5-ylamino}-cyclohexanecarboxylic acid amide] came in with an IC50 of 1000 to 5000 nM. In turn, `CCOc1ccc(-n2nnc3cnc(N[C@@H]4CC[C@@H](O)C4)nc32)cn1` (relative stereo) [A206, (trans)-3-[3-(6-ethoxy-pyridin-3-yl)-3H-[1,2,3]triazolo[4,5-d]pyrimidin-5-ylamino]-cyclopentanol] yielded an IC50 of less than 1000 nM. Then `COCCn1cc(-c2ccc(-n3nnc4cnc(N[C@H]5CC[C@H](O)C5)nc43)cn2)cn1` (relative stereo) [A234, (trans)-3-(3-{6-[1-(2-methoxy-ethyl)-1H-pyrazol-4-yl]-pyridin-3-yl}-3H-[1,2,3]triazolo[4,5-d]pyrimidin-5-ylamino)-cyclopentanol], with less than 1000 nM. Then `COc1ccc(-n2nnc3cnc(N[C@H]4CC[C@H](SC)C4)nc32)cc1` (relative stereo) [A262, [3-(4-methoxy-phenyl)-3H-[1,2,3]triazolo[4,5-d]pyrimidin-5-yl]-((trans)-3-methylsulfanyl-cyclopentyl)-amine], with less than 1000 nM; and `COc1ccc(-n2nnc3cnc(N[C@H]4CC[C@H](S(C)(=O)=O)C4)nc32)cc1` (relative stereo) [A263, ((trans)-3-methanesulfonyl-cyclopentyl)-[3-(4-methoxy-phenyl)-3H-[1,2,3]triazolo[4,5-d]pyrimidin-5-yl]-amine], with less than 1000 nM; and `NC(=O)CCn1cc(-c2ccc(-n3nnc4cnc(N[C@H]5CC[C@H](O)C5)nc43)cc2)cn1` (relative stereo) [A268, 3-(4-{4-[5-(trans-3-hydroxy-cyclopentylamino)-[1,2,3]triazolo[4,5-d]pyrimidin-3-yl]-phenyl}-pyrazol-1-yl)-propionamide], with less than 1000 nM. Then `COc1ccc(-n2nnc3cnc(N[C@@H]4CC[C@H](C#N)C4)nc32)cc1` (relative stereo) [A275, cis-3-[3-(4-Methoxy-phenyl)-3H-[1,2,3]triazolo[4,5-d]pyrimidin-5-ylamino]-cyclopentanecarbonitrile], with less than 1000 nM; and `CCOc1ccc(-n2nnc3cnc(N[C@H]4CC[C@H](n5ncccc5=O)C4)nc32)cc1` (relative stereo) [A287, 2-{(trans)-3-[3-(4-ethoxy-phenyl)-3H-[1,2,3]triazolo[4,5-d]-pyrimidin-5-ylamino]-cyclopentyl}-2H-pyridazin-3-one], with less than 1000 nM.

In turn, `CC(C)(O)c1ccc(-n2nnc3cnc(N[C@@H]4CC[C@@H](O)C4)nc32)cc1` (relative stereo) [A290, (trans)-3-{3-[4-(1-Hydroxy-1-methyl-ethyl)-phenyl]-3H-[1,2,3]triazolo[4,5-d]pyrimidin-5-ylamino}-cyclopentanol] displayed an IC50 of less than 1000 nM. The value for `COc1ccc(-n2nnc3cnc(NC(C)C)nc32)cc1` [A2, Isopropyl-[3-(4-methoxy-phenyl)-3H-[1,2,3]triazolo[4,5-d]pyrimidin-5-yl]-amine] was less than 1000 nM. Then `COc1ccc(-n2nnc3cnc(NC4CCOCC4)nc32)cc1` [A3, [3-(4-methoxy-phenyl)-3H-[1,2,3]triazolo[4,5-d]pyrimidin-5-yl]-(tetrahydro-pyran-4-yl)-amine], with 1000 to 5000 nM; and `COc1ccc(-n2nnc3cnc(N[C@H]4CC[C@H](O)CC4)nc32)cc1` [A6, trans-4-[3-(4-methoxy-phenyl)-3H-[1,2,3]triazolo[4,5-d]pyrimidin-5-ylamino]-cyclohexanol], with less than 1000 nM. Then `COc1ccc(-n2nnc3cnc(NC(C)(C)C)nc32)cc1` [A7, tert-butyl-[3-(4-methoxy-phenyl)-3H-[1,2,3]triazolo[4,5-d]pyrimidin-5-yl]-amine], with less than 1000 nM; and `COc1ccc(-n2nnc3cnc(NC4CCS(=O)(=O)C4)nc32)cc1` (stereo not drawn) [A8, N-(1,1-dioxothiolan-3-yl)-3-(4-methoxyphenyl)triazolo[4,5-d]pyrimidin-5-amine], with less than 1000 nM. For `COc1ccc(-n2nnc3cnc(NC4CCCC4)nc32)cc1` [A12, cyclopentyl-[3-(4-methoxy-phenyl)-3H-[1,2,3]triazolo[4,5-d]pyrimidin-5-yl]-amine], the IC50 is less than 1000 nM. As to `COc1ccc(-n2nnc3cnc(NCCCN4CCN(C)CC4)nc32)cc1` [A13, [3-(4-methoxy-phenyl)-3H-[1,2,3]triazolo[4,5-d]pyrimidin-5-yl]-[3-(4-methyl-piperazin-1-yl)-propyl]-amine], the IC50 fell in the range of 1000 to 5000 nM.

Take `CNc1ncc2nnn(-c3ccc(OC)cc3)c2n1` [A14, [3-(4-methoxy-phenyl)-3H-[1,2,3]triazolo[4,5-d]pyrimidin-5-yl]-methyl-amine]: the IC50 was in the range of 1000 to 5000 nM. Then `COc1ccc(-n2nnc3cnc(NC4CC(C)(C)N(C)C(C)(C)C4)nc32)cc1` [A15, [3-(4-methoxy-phenyl)-3H-[1,2,3]triazolo[4,5-d]pyrimidin-5-yl]-(1,2,2,6,6-pentamethyl-piperidin-4-yl)-amine], with 5000 to 10000 nM; and `CCNc1ncc2nnn(-c3ccc(OC)cc3)c2n1` [A16, ethyl-[3-(4-methoxy-phenyl)-3H-[1,2,3]triazolo[4,5-d]pyrimidin-5-yl]-amine], with less than 1000 nM; and `COc1ccc(-n2nnc3cnc(NC4CC(C)(C)NC(C)(C)C4)nc32)cc1` [A17, [3-(4-methoxy-phenyl)-3H-[1,2,3]triazolo[4,5-d]pyrimidin-5-yl]-(2,2,6,6-tetramethyl-piperidin-4-yl)-amine], with 5000 to 10000 nM.

For the compound `COc1ccc(-n2nnc3cnc(NC4CCN(C)CC4)nc32)cc1` [A18, [3-(4-methoxy-phenyl)-3H-[1,2,3]triazolo[4,5-d]pyrimidin-5-yl]-(1-methyl-piperidin-4-yl)-amine], the IC50 lay in the range of 1000 to 5000 nM.

`COc1ccc(-n2nnc3cnc(NC4C5CN(C)CC54)nc32)cc1` (stereo not drawn) [A19, [3-(4-methoxy-phenyl)-3H-[1,2,3]triazolo[4,5-d]pyrimidin-5-yl]-(3-methyl-3-aza-bicyclo[3.1.0]hex-6-yl)-amine]: the IC50 was 5000 to 10000 nM.

As to `COc1ccc(-n2nnc3cnc(NC4CC(=O)N(C)C4)nc32)cc1` (stereo not drawn) [A20, 4-[3-(4-methoxy-phenyl)-3H-[1,2,3]triazolo[4,5-d]pyrimidin-5-ylamino]-1-methyl-pyrrolidin-2-one], the IC50 fell in the range of 1000 to 5000 nM. The value for `COc1ccc(-n2nnc3cnc(NC4CCC4)nc32)cc1` [A21, cyclobutyl-[3-(4-methoxy-phenyl)-3H-[1,2,3]triazolo[4,5-d]pyrimidin-5-yl]-amine] was less than 1000 nM. The value for `COc1ccc(-n2nnc3cnc(NC4CCc5[nH]ncc5C4)nc32)cc1` (stereo not drawn) [A23, [3-(4-methoxy-phenyl)-3H-[1,2,3]triazolo[4,5-d]pyrimidin-5-yl]-(4,5,6,7-tetrahydro-1H-indazol-5-yl)-amine] was less than 1000 nM.
